Results: patent US20240299362A1, “EXOSOME PACKAGING AND TARGETED AUTOPHAGY” (University of Ottawa, priority 2017, published 2024)
No end group written: not given here. *: point of attachment. Biotin = O=C1N[C@H]2[C@H](CS[C@H]2CCCCC(=O)*)N1

Columns and labels:
wild-type MEF = assay: Exosome production (dynamic light scattering, Western blot) with pp242; assay type: cell-based, mouse; conditions: pp242 1 μM
Method: (§1) Exosomes were enriched by differential centrifugation as previously described (Thery et al., 2006). Briefly, MEF or MDA-MB-231 cells were cultured in media containing FBS depleted of exosomes by centrifugation at 100,000 g for 16 h (Thery et al., 2006). To purify exosomes supernatant from cell cultures was centrifuged at 400 g (7 min), 2000 g (10 min) and 10,000 g (30 min, SW32 rotor). At each step the supernatant was recovered. After centrifugation at 100,000 g (1 h 10 min, SW32 rotor) the supernatant was removed and the pellet was resuspended. The pellet was washed in PBS by a final centrifugation at 100,000 g (20 min, TLA100.3 rotor). The exosome-enriched pellet was re-suspended in PBS for further analyses.
(§2) Preparations of enriched exosomes were analyzed by dynamic light scattering on a Protein Solutions Dynapro Instrument using Dynamics V6 software. Data were acquired every 10 seconds at 4° C. and 10% laser power for at least 200 seconds per sample. The intensity (Cnt/s) and size (nm) were generated automatically by the instrument.

stress granules (G3BP1+) = assay: Stress granules remaining with scFv-LC3 fusion with or without mTOR inhibitor INK128; assay type: cell-based; conditions: arsenite 1 h, recovery 30 min, G3BP1+ staining
Method: Nucleic acids encoding the fusion constructs were stably transduced into cells using lentivirus to generate stable expression using the CMV promoter. Cells were cultured in Lonza Ultraculture medium for 24 h and exosomes were harvested by tangential flow filtration concentration and dialysis on a 750 kDa pore size. Exosomes were then incubated with target cells between 2-24 h. After this time point cells were lysed and levels of cytoplasmic TDP-43 were measured by western blot after elimination of nuclei. […] for 30 min and cells were fixed for immunofluorescence to measure the persistence of stress granules using antibodies targeting G3BP1, PABP or DDX3. The number of stress granules were compared to fusions like scFv VH7 with and without LC3. In some experiments cells were pre-treated for 2-24 h with mTOR inhibitors to induce autophagy.
Experiments were performed to assess whether elimination of anti-TDP-43 VH7 scFv targets by autophagy, triggered by scFv-LC3 fusion constructs, could be further enhanced by treatment with an autophagy-activating agent. In this example, mTOR inhibitor INK128 was used as the autophagy-activating agent.
Cells were transfected with scFv versus TDP-43 fused to LC3, and treated or not treated with the mTOR inhibitor INK128 to assess autophagy activation. […]

exosomes = assay: Packaging of LC3 fusion proteins into exosomes (luciferase light, Western blot of exosomes); assay type: cell-based
Description: FIG. 28 D and E show Western blots of exosomes transfected with Luciferase or Luciferase-LC3 fusion (D), or dsRed or dsRed-LC3 fusion (E). […] The scFv in this experiment was anti-TDP-43 VH7 antibody scFv. Detection of the fusion was by Western blot with anti-LC3 antibody or antibody vs. HA tag incorporated into the linker region in the fusion. […] In FIG. 29 C, expression of scFv-LC3 construct in cells was achieved using lentivirus. […] In FIG. 29 C, cells were expressing anti-TDP-43 antibody scFv clone Vh7. […] The inventors hypothesized that exosomes may deliver intrabody-LC3 chimeras with high efficiency to tissues like liver, small intestine and kidney (IV), and if injected (for example) into the spinal cord (as ASOs or AAV in patients in neurodegeneration), throughout the spinal cord and the brain. […]
Nucleic acids encoding the fusion constructs were stably transduced into cells using lentivirus to generate stable expression using the CMV promoter. […] After this time point cells were lysed and levels of cytoplasmic TDP-43 were measured by western blot after elimination of nuclei. […]
The data are for 3 scFv fused to LC3 derived from anti-TDP-43 VH7, anti-TDP-43 41D1, and anti-Tau 4E4. […] Cells were transduced with scFv-LC3 conjugates, and exosomes were purified from these and analyzed by Western blot. […]

recombinant LC3 [1] = conditions: 10 nmoles peptide, 100 ng recombinant LC3
Method: (SEQ ID NO: 20). Fifteen μl of Dynabeads® MyOne™ Streptavidin T1 (Cat #65601, ThermoFisher) were washed with PBS, then 10 nmoles of biotinylated peptides and 100 ng of recombinant LC3 were added. The mixture was rotated at 4 C over night. The beads were then washed with PBS 3 times and collected for further western analysis.

recombinant LC3 [2] = conditions: competitive excess of peptide; cell lysate
Method: In brief, 0.5 μg of His-tagged recombinant LC3 (His-tag, Cat #ADI-APR-100-0200, Enzo Life Sciences) was rotated in 50 μl with 5 μl of His-tagged Dynabeads (Cat #10103D, Thermofisher) in a binding/wash buffer (50 mM Sodium Phosphate, pH 8.0, 150 mM NaCl, 0.01% Tween®-20, 0.5% Triton X-100) at room temperature (RT) for 10 min. Then 150 μl of binding/wash buffer containing 5% BSA was added to the tubes and rotated for 5 minutes. Tubes were placed on a magnet and supernatant discarded. Cell lysate (100 ul, 150 ug) collected in Pull-down Buffer (3.25 mM Sodium phosphate pH 7.4, 70 mM NaCl, 0.01% Tween®-20, 0.5% Triton X-100) was incubated on a roller for 10 min. Supernatant was discarded and beads were washed 4 times with 300 μl Binding/Wash Buffer. His-LC3 was eluted with 150 mM Imidazole, 50 mM Sodium phosphate pH 8.0, 300 mM NaCl, 0.01% Tween®-20 with gentle shaking for 5 min. Supernatants were separated from beads on a magnet. The median intensities of bands for p62, ATP6V1E1 and background were quantified over 3 independent experiments using ImageQuantTL (GE Healthcare).
Experiments with competitive peptides were performed as above, except 50 μmoles of peptide was added during incubation with cell lysate. […] (SEQ ID NO: 20).

Atg5^−/− MEF [3] = assay: Exosome production (nanoparticle tracking, dynamic light scattering, Western blot), Example 1; assay type: cell-based, mouse; conditions: Chloroquine 100 μM 16 h, NH4Cl 20 mM 30 min, Concanamycin, siRNA
Method: Exosomes were enriched by differential centrifugation as previously described (Thery et al., 2006). Briefly, cells were cultured in media containing 10% FBS previously depleted of exosomes by centrifugation at 100 000 g for 16 h (Thery et al., 2006). To purify exosomes, supernatant from cell cultures was centrifuged at 300 g (10 min), 2000 g (10 min) and 10,000 g (30 min, SW32 rotor). At each step the supernatant was recovered. After centrifugation at 100 000 g (1 h 10 min, SW32 rotor) the supernatant was removed and the pellet was resuspended. The pellet was washed in PBS by a final centrifugation at 100 000 g (20 min, TLA100.3 rotor). The exosome-enriched pellet was re-suspended in PBS for further analyses.
Preparations of enriched exosomes were analyzed using either a Nanosight (FIG. 1A,C) or a ParticleMetrix Zetaview Nanoparticle tracking instrument (all other graphs). […]
The Zeta View Nanoparticle Tracking instrument (ParticleMetrix) is calibrated for experiments following every instrument start-up. […] If the sample falls within the acceptable reading concentration range, video acquisition and analysis was performed using the following parameters. Acquisition Parameters: Sensitivity (85), Shutter speed (40), Frame rate per second (30), Resolution (Highest), Positions measured (11). […]
The analysis reports containing the particle size (nm) and concentration (particles/ml) were generated automatically. The particles between 45 nm and 105 nm were summed to quantify exosome-sized particles. In experiments in FIG. 5N,O measuring exosome production after treating cells with NH4Cl or Chloroquine for short time periods, background readings from exosome-depleted media alone were subtracted. […]

Atg5^−/− MEF [4] = assay: Exosome production (dynamic light scattering, Western blot), Example 2; assay type: cell-based, mouse; conditions: BAF or ConA 12 h
Method: as §1, §2
Preparations of enriched exosomes were analyzed using a Nanosight LM10 instrument with Nanoparticle Tracking Analysis software Version 2.3. Measurement temperature was 22° C. and time setting was 90 seconds. The analysis conditions were set as: Blur 3×3, Detection Threshold 3, Min Track Length 9, and Min Expected Size 30 nm. […]

V0-ATPase complex = target: T1, V0-ATPase complex (Mus musculus, UniProt P63082); assay: Lysotracker staining of cells with V0-ATPase inhibitors; assay type: cell-based; conditions: MEF; 12 h treatment
T1 construct: endogenous in cells; MEF inferred)
T1 sequence (P51863 whole entry): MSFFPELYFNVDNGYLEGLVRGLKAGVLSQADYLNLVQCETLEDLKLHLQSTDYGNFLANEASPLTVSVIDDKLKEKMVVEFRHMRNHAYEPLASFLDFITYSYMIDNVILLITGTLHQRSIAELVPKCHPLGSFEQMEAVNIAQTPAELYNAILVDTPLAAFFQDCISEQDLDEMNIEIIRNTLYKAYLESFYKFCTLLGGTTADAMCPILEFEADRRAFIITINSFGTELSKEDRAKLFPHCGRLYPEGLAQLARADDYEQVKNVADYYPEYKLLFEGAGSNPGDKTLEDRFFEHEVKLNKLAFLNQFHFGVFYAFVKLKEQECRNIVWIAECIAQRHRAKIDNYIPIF
T1 sequence (Q9Z1G4 whole entry, further chain): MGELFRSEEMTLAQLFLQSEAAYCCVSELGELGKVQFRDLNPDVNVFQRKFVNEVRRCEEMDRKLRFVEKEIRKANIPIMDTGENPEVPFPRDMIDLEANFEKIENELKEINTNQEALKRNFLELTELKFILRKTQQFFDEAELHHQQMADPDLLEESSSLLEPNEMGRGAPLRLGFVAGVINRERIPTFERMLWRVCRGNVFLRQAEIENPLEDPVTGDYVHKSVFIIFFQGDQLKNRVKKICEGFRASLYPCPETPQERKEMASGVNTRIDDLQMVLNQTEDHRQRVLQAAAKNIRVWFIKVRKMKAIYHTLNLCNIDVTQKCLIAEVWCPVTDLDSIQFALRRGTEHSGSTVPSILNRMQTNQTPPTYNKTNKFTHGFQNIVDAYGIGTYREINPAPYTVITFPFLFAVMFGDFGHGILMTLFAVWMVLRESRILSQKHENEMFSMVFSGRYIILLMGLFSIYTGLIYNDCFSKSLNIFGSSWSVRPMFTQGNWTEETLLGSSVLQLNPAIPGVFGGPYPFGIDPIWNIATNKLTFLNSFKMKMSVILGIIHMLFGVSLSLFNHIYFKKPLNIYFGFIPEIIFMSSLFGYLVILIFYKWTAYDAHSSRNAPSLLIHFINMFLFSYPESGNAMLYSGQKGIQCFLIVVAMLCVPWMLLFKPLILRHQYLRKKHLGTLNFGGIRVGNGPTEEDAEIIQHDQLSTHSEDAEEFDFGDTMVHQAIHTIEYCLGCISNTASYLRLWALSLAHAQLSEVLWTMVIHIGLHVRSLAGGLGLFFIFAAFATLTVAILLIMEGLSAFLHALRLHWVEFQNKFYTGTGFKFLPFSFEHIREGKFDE
T1 sequence (Q91V37 whole entry, further chain): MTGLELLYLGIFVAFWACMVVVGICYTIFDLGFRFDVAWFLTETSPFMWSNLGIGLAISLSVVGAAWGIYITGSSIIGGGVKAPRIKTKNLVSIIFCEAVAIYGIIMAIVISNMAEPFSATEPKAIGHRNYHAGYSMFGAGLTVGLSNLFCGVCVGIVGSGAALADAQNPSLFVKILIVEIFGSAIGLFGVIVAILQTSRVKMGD
T1 sequence (P63082 whole entry): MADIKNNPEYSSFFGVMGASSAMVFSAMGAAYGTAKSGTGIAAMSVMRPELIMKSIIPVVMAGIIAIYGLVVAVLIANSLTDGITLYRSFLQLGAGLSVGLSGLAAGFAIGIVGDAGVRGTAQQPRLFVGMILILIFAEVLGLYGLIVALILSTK
Description: If increased MVB acidification in Atg5^−/− cells causes the drop in exosome release, blocking acidification of MVB may promote exosome release.

Compound: CC(C)n1nc(-c2cc3cc(O)ccc3[nH]2)c2c(N)ncnc21 [pp242]
- exosome production (wild-type MEF): increased exosome production

Compound: CC(C)n1nc(-c2ccc3oc(N)nc3c2)c2c(N)ncnc21 [INK128]
- % of stress granules remaining (stress granules (G3BP1+)): did not have a measureable effect

Compound: HJ8.5-LC3a: anti-Tau scFv HJ8.5 fused via linker and HA tag to LC3a (SEQ ID NO: 57)
- packaging of construct into exosomes (exosomes): packaged into exosomes

Compound: Biotin-RCRKQDFPLVKA [putative ATP6V1E1 LIR motif peptide]
- pulldown of recombinant LC3 by biotinylated peptide (recombinant LC3 [1]): bound at background levels
- competition of ATP6V1E1 pulldown by recombinant LC3 (recombinant LC3 [2]): did not affect binding
- competition of p62 pulldown by recombinant LC3 (recombinant LC3 [2]): did not affect binding

Compound: biotin-SGGDDDWTHLSS [p62 LIR motif peptide]
- pulldown of recombinant LC3 by biotinylated peptide (recombinant LC3 [1]): pulled down recombinant LC3
- competition of ATP6V1E1 pulldown by recombinant LC3 (recombinant LC3 [2]): had no effect
- competition of p62 pulldown by recombinant LC3 (recombinant LC3 [2]): competed with endogenous p62 binding

Compound: CCN(CC)CCCC(C)Nc1ccnc2cc(Cl)ccc12 (centres unmarked) [Chloroquine]
- exosome production in Atg5^−/− cells (Atg5^−/− MEF [3]): rescued exosome production

Compound: Cl.N [NH4Cl]
- exosome production in Atg5^−/− cells (Atg5^−/− MEF [3]): rescued exosome production

Compound: CO/C1=C\C(C)=C\[C@@H](C)[C@@H](O)[C@@H](C)C/C(C)=C/C=C/[C@H](OC)[C@@H]([C@@H](C)[C@@H](O)[C@H](C)[C@@]2(O)C[C@@H](O)[C@H](C)[C@@H](C(C)C)O2)OC1=O [Bafilomycin A1]
- exosome production of Atg5^−/− cells (Atg5^−/− MEF [4]): restored exosome production
- staining of cells with Lysotracker (V0-ATPase complex): abrogated staining of cells with Lysotracker

Compound: Concanamycin A
- exosome production in Atg5^−/− cells (Atg5^−/− MEF [3]): rescued exosome production
- exosome production of Atg5^−/− cells (Atg5^−/− MEF [4]): restored exosome production
- staining of cells with Lysotracker (V0-ATPase complex): abrogated staining of cells with Lysotracker

Compound: Biotin-RCRKAILPLQKA [control mutated peptide]
- pulldown of recombinant LC3 by biotinylated peptide (recombinant LC3 [1]): bound at background levels
